How the values were obtained:
Assay type in all cases: cell-based
[1] = system: β3 integrin; assay: Cell surface β3 integrin expression by flow cytometry after overnight drug incubation; conditions: 5 μM
Procedure: (§1) FIGS. 13A-13P illustrate B-raf^V600E inhibits FAK to promote integrin surface expression. FIG. 13A: shRNAs 841, 102 and NC were induced in WM858 cells by IPTG for 5 days (n=4) followed by RNA quantitation. Genes regulated at 0 vs. 0.05 mM IPTG in 841 and 102 but not NC cells are shown. These were: ITGB3 (orange), FAK (blue). Light orange, light blue: up- or down-regulation, respectively, by either 841 or 102 shRNA. FIG. 13B: WM858 cells were transfected with FAK or EGFP cDNA. Regulated genes, FAK over EGFP cells, are shown in orange (up) or blue (down) (n=4). FIG. 13C: Flow cytometry of NC, 841 and 102 cells (un-induced vs. 0.05 mM IPTG for 5 days). FIG. 13D: Integrin cell surface mean intensities; mean.+−.s.d.; n=3; *, p<0.05; p values, Student's t-test; ns, not significant. FIG. 13E: Visualization of focal adhesions by paxillin staining on micropatterned fibronectin disks. FIGS. 13F and 13G: Proliferation speed in the absence (FIG. 13F) or presence (FIG. 13G) of FAK shRNAs; mean.+−.s.d.; n=8; *, p<0.05; p values, Student's t-test; ns, not significant. FIGS. 13H and 13I: Scratch wound healing in IPTG-induced cells; representative experiment (n=3). FIGS. 13J and 13K: Effect of IPTG-induced FAK knock-down on total (t) and phospho (p)-ERK; mean.+−.s.d.; n=4; *, p<0.05; p values, Student's t-test. FIG. 13L: Cell surface β1 and β3 integrin expression (flow cytometry) in B-raf^V600E and wild-type cells after overnight drug incubation; % expression relative to DMSO is shown. FIGS. 13M-13O: FAK/ERK levels in NHM and WM858 after overnight drug incubation (FIG. 13M); quantification of FAK (FIG. 13N) and ERK phosphorylation (FIG. 13O); mean.+−.s.d.; n=4; *, p<0.05; p values, Student's t-test. FIG. 13P: ERK activity in NC, 841 and 102 cells (0.05 mM IPTG for 5 days) after overnight drug incubation.
Isopropyl β-D-1-thiogalactopyranoside (IPTG), 4′,6-Diamidino-2-phenylindole dihydrochloridemitomycin (DAPI), blebbistatin and PF-573228 were purchased from Sigma-Aldrich. Dabrafenib (GSK2118436) was purchased from Selleckchem. FAK antibody (06-543) was from EMD MILLIPORE®. FAK pY397 (44624G) antibody was from Life Technologies. Total ERK (9102) and phospho-ERK (4370) antibodies were from Cell Signaling. Paxillin (610051), ITGB3 (555754), ITGB1 (555443) and mouse IgG1 kappa (555749) antibodies were from BD Transduction Labs. Drugs were used at 5 μM final concentration. EGFP control cDNA was from (Lonza). […]
(§2) PYK2, a FAK-like tyrosine kinase, could not be detected in WM858 cells, irrespective of endogenous FAK levels. WM858 cells carrying control (NC) or FAK-specific shRNAs (841 and 102) were then exposed to IPTG for 5 days, and changes in adhesion gene expression were subsequently quantified by PCR. […]

[2] = system: β1 integrin; assay: Cell surface β1 integrin expression by flow cytometry after overnight drug incubation; conditions: 5 μM
Procedure: as §1
Isopropyl β-D-1-thiogalactopyranoside (IPTG), 4′,6-Diamidino-2-phenylindole dihydrochloridemitomycin (DAPI), blebbistatin and PF-573228 were purchased from Sigma-Aldrich. Dabrafenib (GSK2118436) was purchased from Selleckchem. FAK antibody (06-543) was from EMD MILLIPORE®. FAK pY397 (44624G) antibody was from Life Technologies. Total ERK (9102) and phospho-ERK (4370) antibodies were from Cell Signaling. Paxillin (610051), ITGB3 (555754), ITGB1 (555443) and mouse IgG1 kappa (555749) antibodies were from BD Transduction Labs. Drugs were used at 5 μM final concentration. EGFP control cDNA was from (Lonza). FAK cDNA was obtained from A. Huttenlocher, Addgene plasmid number 35039 (Chan et al., J. Biol. Chem., 285:11418-26 (2010)).
PYK2, a FAK-like tyrosine kinase, could not be detected in WM858 cells, irrespective of endogenous FAK levels. WM858 cells carrying control (NC) or FAK-specific shRNAs (841 and 102) were then exposed to IPTG for 5 days, and changes in adhesion gene expression were subsequently quantified by PCR. […] Moreover, Dabrafenib-induced blockage of ERK activity could be partially reversed by a complete FAK knock-down in 102 cells (FIG. 13P).

[3] = target: T1, FAK (Homo sapiens, UniProt Q05397); assay: FAK Y397 auto-phosphorylation by Western blotting after overnight drug incubation; conditions: melanoma cells, 5 μM
T1 construct: FAK/ERK levels in NHM and WM858 after overnight drug incubation; endogenous in cells; host or cells: WM858 melanoma cells and NHM
Procedure: (§3) FIGS. 13A-13P illustrate B-raf^V600E inhibits FAK to promote integrin surface expression. FIG. 13A: shRNAs 841, 102 and NC were induced in WM858 cells by IPTG for 5 days (n=4) followed by RNA quantitation. Genes regulated at 0 vs. 0.05 mM IPTG in 841 and 102 but not NC cells are shown. These were: ITGB3 (orange), FAK (blue). Light orange, light blue: up- or down-regulation, respectively, by either 841 or 102 shRNA. FIG. 13B: WM858 cells were transfected with FAK or EGFP cDNA. Regulated genes, FAK over EGFP cells, are shown in orange (up) or blue (down) (n=4). FIG. 13C: Flow cytometry of NC, 841 and 102 cells (un-induced vs. 0.05 mM IPTG for 5 days). FIG. 13D: Integrin cell surface mean intensities; mean.+−.s.d.; n=3; *, p<0.05; p values, Student's t-test; ns, not significant. FIG. 13E: Visualization of focal adhesions by paxillin staining on micropatterned fibronectin disks. […] FIGS. 13M-13O: FAK/ERK levels in NHM and WM858 after overnight drug incubation (FIG. 13M); quantification of FAK (FIG. 13N) and ERK phosphorylation (FIG. 13O); mean.+−.s.d.; n=4; *, p<0.05; p values, Student's t-test. […]
as §2

[4] = system: ERK; assay: ERK activity (phospho-ERK) by Western blotting after overnight drug incubation; conditions: WM858 melanoma cells, 5 μM
Procedure: as §3, §2

T1 sequence (Q05397 whole entry): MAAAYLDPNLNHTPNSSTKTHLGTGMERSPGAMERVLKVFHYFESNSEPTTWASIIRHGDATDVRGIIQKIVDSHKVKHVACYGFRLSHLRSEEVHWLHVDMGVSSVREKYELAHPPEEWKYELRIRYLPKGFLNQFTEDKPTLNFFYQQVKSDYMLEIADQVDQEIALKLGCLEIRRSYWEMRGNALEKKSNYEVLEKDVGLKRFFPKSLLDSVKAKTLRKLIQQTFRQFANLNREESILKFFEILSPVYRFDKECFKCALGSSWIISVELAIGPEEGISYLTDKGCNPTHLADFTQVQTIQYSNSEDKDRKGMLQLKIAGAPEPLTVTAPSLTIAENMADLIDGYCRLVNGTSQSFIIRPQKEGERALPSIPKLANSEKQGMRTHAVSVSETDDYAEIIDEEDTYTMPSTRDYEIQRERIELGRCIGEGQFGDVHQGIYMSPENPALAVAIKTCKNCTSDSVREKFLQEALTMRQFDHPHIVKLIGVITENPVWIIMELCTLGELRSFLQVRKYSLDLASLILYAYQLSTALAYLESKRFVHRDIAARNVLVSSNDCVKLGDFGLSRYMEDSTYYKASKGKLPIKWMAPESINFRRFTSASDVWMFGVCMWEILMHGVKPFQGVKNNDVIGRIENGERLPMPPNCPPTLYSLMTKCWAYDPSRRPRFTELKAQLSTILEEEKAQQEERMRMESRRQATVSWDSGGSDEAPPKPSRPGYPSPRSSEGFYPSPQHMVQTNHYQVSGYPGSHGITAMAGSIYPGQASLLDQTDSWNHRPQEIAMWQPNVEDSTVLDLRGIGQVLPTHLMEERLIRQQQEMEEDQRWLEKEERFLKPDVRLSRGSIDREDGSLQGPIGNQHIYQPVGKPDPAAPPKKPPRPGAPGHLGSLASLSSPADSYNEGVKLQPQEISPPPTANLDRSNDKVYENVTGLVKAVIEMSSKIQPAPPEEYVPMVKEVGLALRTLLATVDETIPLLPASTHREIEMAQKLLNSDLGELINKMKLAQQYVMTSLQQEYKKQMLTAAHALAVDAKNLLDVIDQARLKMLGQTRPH

FAK tyrosine (Y) 397 auto-phosphorylation [3] | Compound | integrin levels (cell surface β3) ([1]; NHM) | integrin levels (cell surface β3) ([1]; most melanoma cells) | integrin levels (cell surface β1) ([2]; NHM) | integrin levels (cell surface β1) ([2]; most melanoma cells) | ERK activity [4] | β3 integrin surface levels ([1]; B-rafV600E melanoma cells) | β1 integrin surface levels ([2]; B-raf wild-type melanoma cells) | β1 integrin surface levels ([2]; B-rafV600E melanoma cells)
increased | CC(C)(C)c1nc(-c2cccc(NS(=O)(=O)c3c(F)cccc3F)c2F)c(-c2ccnc(N)n2)s1 [Dabrafenib] | not | reduced | not | reduced | blockage | – | – | –
– | CS(=O)(=O)c1cccc(CNc2nc(Nc3ccc4c(c3)CCC(=O)N4)ncc2C(F)(F)F)c1 [PF-573228] | – | – | – | – | induce | induced | not | induced

— patent publication US11851710B2, “Methods and materials for identifying metastatic malignant skin lesions and treating skin cancer” (Mayo Foundation for Medical Education and Research, priority 2014, dated 2023)
